This is an account of results in patent publication US20030199516A1, “Methods of treating infection by drug resistant bacteria” (Genesoft, Inc., priority 2001, published 2003).

One assay has as its system S. aureus ATCC 27660. Nature of the assay: NCCLS broth microdilution MIC. The settings on record: Col. A = S. aureus ATCC 27660 (MRSA). It is filed as cell-based, Staphylococcus aureus. The source says: (§1) In vitro antibacterial activity data were collected for the following Gram-positive bacteria: Staphylococcus aureus (ATCC 27660, ATCC 33591 and ATCC 43300, all methicillin resistant strains (MRSA's)); Streptococcus pneumoniae (ATCC 51422, a penicillin resistant strain (PRSP)), Enterococcus faecium (ATCC 51559, and/or a vancomycin resistant strain (VRE)). Additionally, antifungal activity data were collected for Candida albicans (ATCC 38247). Minimal inhibition concentrations (MIC's) were determined using the National Committee for Clinical Laboratory Standards (NCCLS) broth microdilution assay in microtiter plates, as set forth in: (1) the guidelines of the National Committee for Clinical Laboratory Standards (NCCLS) Document M7-A4 (NCCLS, 1997); (2) the guidelines of the National Committee for Clinical Laboratory Standards (NCCLS) Document M11-A4 (NCCLS, 1997); and (3) the guidelines and reference method of the National Committee for Clinical Laboratory Standards (NCCLS) Document M27-T (NCCLS, 1995). For antifungal essays, the method recommended in Murray, PR., 1995 Manual of Clinical Microbiology (ASM Press, Washington, D.C.), was employed.

The next assay has as its system S. aureus ATCC 33591. The assay is described as follows: NCCLS broth microdilution MIC. It is filed as cell-based, Staphylococcus aureus. The settings on record: Col. B = S. aureus ATCC 33591 (MRSA).
Description: as §1

The subject of assay [1] is Enterococcus faecium ATCC 51559. The assay is described as follows: NCCLS broth microdilution MIC. It is filed as cell-based. The settings on record: Col. D = E. faecium ATCC 51559 (VRE).
Description: as §1
(In general: In broth dilution the organism is exposed to a series of concentrations in liquid medium.)

The test system of assay [2] is Streptococcus pneumoniae ATCC 51422. Nature of the assay: NCCLS broth microdilution MIC. It is filed as cell-based. The settings on record: Col. E = S. pneumoniae ATCC 51422 (PRSP).
Description: as §1

Assay [3] concerns Candida albicans ATCC 38247. Nature of the assay: Antifungal MIC. The format is cell-based. The settings on record: Col. F = C. albicans ATCC 38247.
Description: as §1

Assay [4] concerns the target target sequence TGACAATTAAT (352 bp fragment, Plasmid C). Nature of the assay: Quantitative DNase I footprint titration. It is filed as binding. The settings on record: 352 bp C, 22° C., pH 7.0, read-out: Dissociation Constant Kd. The source says:
(§2) Compounds (1) through (20) according to this invention were screened for their ability to bind to specified DNA target sequences, using DNase I footprinting. Generally, the procedure described in Dervan, WO 98/50582 (1998), was followed.
(§3) Three double stranded circular plasmids A, B, and C were used to prepare double stranded DNA-binding probes containing the target sequences for the DNase I footprint titration experiments. Plasmids A, B, and C had nucleotide sequences given by SEQ ID NO. I, SEQ ID NO. II, and SEQ ID NO. III, respectively.
(§4) The 3′-P32 end-labeled EcoRI/PvuII fragments from each plasmid were prepared by digesting the plasmids with EcoRI and PvuII with simultaneous fill-in using Sequenase v. 2.0, [alpha-P32]-deoxyadenosine-5′-triphosphate, and [alpha-P32]-thymidine-5′-triphosphate, and isolating the cloned fragments by nondenaturing gel electrophoresis. A and G sequencing reactions were carried out as described (See Maxam and Gilbert, Methods Enzymol., 1980, 65, 499-560; Iverson and Dervan, Methods Enzymol., 1987, 15, 7823-7830; Sambrook et al., 1989, Molecular Cloning, 2nd ed., Cold Spring Harbor Laboratory Press: Cold Spring Harbor, N.Y.) Standard methods were used for all DNA manipulations (Sambrook et al., ibid.) The cut sites for EcoRI and PvuII are indicated by bars in the respective maps of Plasmids A, B, and C in FIGS. 5, 6, and 7.
(§5) The 351 base pair dsDNA restriction fragment (SEQ ID NO. IV) of Plasmid A contained the target sequences AAAAAGCAAAAA, AAAAAGACAAAAA, and AAAAAGTACAAAAA. The 310 base pair dsDNA restriction fragment (SEQ ID NO. V) of Plasmid B contained the target sequences AGTACT, AATACT, and ATTACT. The 352 base pair dsDNA restriction fragment (SEQ ID NO. VI) of Plasmid C contained the target sequences TGACAATTAAT, GACAATTAATCA, AATTAATCAT, ACAATTA, and ACAATTAAT. These fragments were used for quantitative DNase I footprinting experiments. Compounds used in the method of this invention bind to at least one of the target sites with a equal to or less than 100 nM, preferably equal to or less than 50 nM, and more preferably equal to or less than 20 nM. The target sequences were selected for the identity with, or similarity to, promoter sites for bacterial genes.
(§6) Quantitative DNase I footprint titration experiments were carried out as described previously (Dervan, WO 98/50582, 1998) with the following changes. All reactions were carried out in a total volume of 400 μL, with compound stock solution or water added to 15,000 cpm radiolabeled restriction fragment affording final solution conditions of 10 mM Tris HCl, 10 mM KCl, 10 mM MgCl2, 5 mM CaCl2, pH 7.0 and 0.01 nM, 0.1 nM, 1.0 nM, 10.0 nM compound or no compound for reference lanes. The compounds were allowed to equilbrate at 22° C. for 16 h. Footprinting reactions were initiated with addition of 10 μL of a DNase I stock solution (at the appropriate concentration to give ˜50% intact DNA) containing 1 mM DTT and allowed to proceed for 7 min at 22° C. The reactions were stopped, ethanol precipitated, resuspended in loading buffer, heat denatured, and placed on ice as described previously (Dervan WO 98/50582, 1998). The reaction products were separated on a precast 8% polyacrylamide denaturing sequencing Castaway gel with 32 preformed wells from Stratagene in 1×TBE at 2000 V. Gels were dried according to the manufacturer and exposed to a storage phosphor screen (Molecular Dynamics). Quantitation and data analysis were carried out as described in Dervan, WO 98/50582, 1998.

Assay [5] deals with target sequence […] (351 bp fragment, Plasmid A). Nature of the assay: Quantitative DNase I footprint titration. The format is binding. The settings on record: AAAAAGTACAAAAA, 351 bp A; 22° C., pH 7.0; read-out: Dissociation Constant Kd.
Description: as §2, §3, §4, §5, §6

Assay [6] deals with target sequence GACAATTAATCA (352 bp fragment, Plasmid C). Nature of the assay: Quantitative DNase I footprint titration. The format is binding. The settings on record: 352 bp C, 22° C., pH 7.0, read-out: Dissociation Constant Kd.
Description: as §2, §3, §4, §5, §6

For the next assay, the system named is S. aureus ATCC 43300. The assay is described as follows: NCCLS broth microdilution MIC. It is filed as cell-based, Staphylococcus aureus. The settings on record: Col. C = S. aureus ATCC 43300 (MRSA).
Description: as §1

Assay [7] concerns the target target sequence AATTAATCAT (352 bp fragment, Plasmid C). Nature of the assay: Quantitative DNase I footprint titration. The settings on record: 352 bp C, 22° C., pH 7.0, read-out: Dissociation Constant Kd. The format is binding.
Description: as §2, §3, §4, §5, §6

The structures appear in SMILES notation. A value given as a limit tells only on which side of the number the result lay.

The Kd is the equilibrium constant for the complex coming apart. As to `CC(C)N(CCNC(=O)CCNC(=O)c1cc(NC(=O)c2cc(NC(=O)CCNC(=O)c3cc(NC(=O)c4cc(NC(=O)c5cc(Br)c(Br)s5)cn4C)cn3C)cn2C)cn1C)C(C)C` [Compound 2], the “Minimum Inhibitory Concentration (MIC)” value is “++ (++ = MIC ≦ 1)” in the assay on S. aureus ATCC 27660; “− (− = MIC > 2)” in the assay on S. aureus ATCC 33591; “+ (+ = MIC ≦ 2)” in [1]; “++ (++ = MIC ≦ 1)” in [2]; >32 µg/mL in assay [3]. Besides, the dissociation constant Kd came out at 10 nM in [4] and 0.2 nM in [5].

On to `Cn1cc(NC(=O)c2cc(NC(=O)CCNC(=O)c3cc(NC(=O)c4cc(NC(=O)c5cc(Br)c(Br)s5)cn4C)cn3C)cn2C)cc1C(=O)NCCC(=O)NCCN1CCCCC1` [Compound 3], for which the “Minimum Inhibitory Concentration (MIC)” value in the assay with S. aureus ATCC 27660 was “++ (++ = MIC ≦ 1)”; with S. aureus ATCC 33591, “++ (++ = MIC ≦ 1)”; in assay [1], “+ (+ = MIC ≦ 2)”; in assay [2], “++ (++ = MIC ≦ 1)”; in assay [3] it was >32 µg/mL. Besides, the dissociation constant (Kd) amounted to 2 nM in assay [4] and 0.01 nM in [5].

As for `CCN(CC)CCCNC(=O)CCNC(=O)c1cc(NC(=O)c2cc(NC(=O)CCNC(=O)c3cc(NC(=O)c4cc(NC(=O)c5cc(Br)c(Br)s5)cn4C)cn3C)cn2C)cn1C` [Compound 4], the “Minimum Inhibitory Concentration (MIC)” value with S. aureus ATCC 27660 is “++ (++ = MIC ≦ 1)”; in the assay on S. aureus ATCC 33591 it was “++ (++ = MIC ≦ 1)”; in assay [1] it was “− (− = MIC > 2)”; in assay [2] it was “++ (++ = MIC ≦ 1)”; in [3], >32 µg/mL. Moreover, the Kd in assay [4] was 10 nM; in assay [5], 0.01 nM.

With `CN(C)CC(C)(C)CNC(=O)CCNC(=O)c1cc(NC(=O)c2cc(NC(=O)CCNC(=O)c3cc(NC(=O)c4cc(NC(=O)c5cc(Br)c(Br)s5)cn4C)cn3C)cn2C)cn1C` [Compound 5], the “Minimum Inhibitory Concentration (MIC)” value in the assay with S. aureus ATCC 27660 was “++ (++ = MIC ≦ 1)”; with S. aureus ATCC 33591, “++ (++ = MIC ≦ 1)”; in [1], “− (− = MIC > 2)”; in assay [2] it was “++ (++ = MIC ≦ 1)”; in assay [3] it was >32 µg/mL. Further, the Kd stood at 2 nM in assay [6] and 0.01 nM in assay [5].

On to `Cn1cc(NC(=O)c2cc(NC(=O)c3cc(NC(=O)c4sc5ccccc5c4Cl)cn3C)cn2C)cc1C(=O)NCCN1CCOCC1` [Compound 8], for which the “Minimum Inhibitory Concentration (MIC)” value was “++ (++ = MIC ≦ 1)” in the assay with S. aureus ATCC 27660; “++ (++ = MIC ≦ 1)” with S. aureus ATCC 33591; “++ (++ = MIC ≦ 1)” with S. aureus ATCC 43300; “++ (++ = MIC ≦ 1)” in assay [1]; “++ (++ = MIC ≦ 1)” in [2]; >32 µg/mL in [3]. The equilibrium dissociation constant (Kd) in [7] was 0.2 nM.

Turning to `Cn1cc(NC(=O)c2cc(NC(=O)c3cc(NC(=O)c4sccc4Cl)cn3C)cn2C)cc1C(=O)NCCN1CCSCC1` [Compound 11], the “Minimum Inhibitory Concentration (MIC)” value is “+ (+ = MIC ≦ 2)” in the assay on S. aureus ATCC 27660; “− (− = MIC > 2)” in the assay on S. aureus ATCC 33591; “+ (+ = MIC ≦ 2)” in assay [1]; “++ (++ = MIC ≦ 1)” in assay [2]; >32 µg/mL in assay [3]. Further, in assay [6], the Kd was ≤ 1 nM.

On to `Cn1cc(NC(=O)c2cc(NC(=O)c3cc(NC(=O)c4ccc(F)cc4F)cn3C)cn2C)cc1C(=O)NCCN1CCCCCC1` [Compound 15], for which the “Minimum Inhibitory Concentration (MIC)” value in the assay on S. aureus ATCC 27660 is “++ (++ = MIC ≦ 1)”; in the assay on S. aureus ATCC 33591 it was “− (− = MIC > 2)”; in [1], “+ (+ = MIC ≦ 2)”; in [2], “++ (++ = MIC ≦ 1)”; in assay [3], 8 µg/mL. The equilibrium dissociation constant (Kd) in [7] came to 2 nM.

For `Cn1cc(NC(=O)c2sc3ccccc3c2Cl)cc1C(=O)Nc1cc(C(=O)NCCN2CCCCC2)n(CCN2CCOCC2)c1` [Compound 16], the “Minimum Inhibitory Concentration (MIC)” value in the assay on S. aureus ATCC 27660 was “++ (++ = MIC ≦ 1)”; in the assay on S. aureus ATCC 33591, “++ (++ = MIC ≦ 1)”; in [1] it was “++ (++ = MIC ≦ 1)”; in assay [2], “++ (++ = MIC ≦ 1)”; in assay [3], 4 µg/mL. Besides, the dissociation constant Kd in assay [7] was found to be 10 nM.

Turning to `Cn1cc(NC(=O)c2sc3ccccc3c2Cl)cc1-c1nc2ccc(C(=O)NCCN3CCCCC3)cc2[nH]1` [Compound 18], the “Minimum Inhibitory Concentration (MIC)” value was “++ (++ = MIC ≦ 1)” with S. aureus ATCC 27660; “++ (++ = MIC ≦ 1)” in the assay on S. aureus ATCC 33591; “++ (++ = MIC ≦ 1)” in assay [1]; “++ (++ = MIC ≦ 1)” in [2]; >32 µg/mL in assay [3]. For the same compound, the Kd in assay [7] is 5 nM.
